In paper PMC7148434, “ACE-domain selectivity extends beyond direct interacting residues at the active site” (Biochemical Journal, 2020):
Square brackets hold non-standard residues; d marks the D form. Ends that are not written are not given here. * marks the point of attachment. Dnp = O=[N+]([O-])c1ccc(*)c([N+](=O)[O-])c1; 2Abz = Nc1ccccc1C(=O)O

Columns and labels:
nACE [1] = biological target: nACE (Homo sapiens, UniProt P12821); test: Inhibitor binding kinetics, modified Abz-FRK(Dnp)P-OH assay, wild-type N-domain; format: biochemical; design: The truncated (single domain) wild-type N-domain (nACE); made in house; host or cells: CHO-K1; conditions: nACE; Morrison plot; 50 mM HEPES pH 6.8, 200 mM NaCl, 10 μM ZnCl2; mean ± SD
Chain of nACE (Homo sapiens, UniProt P12821) (P12821 40-624 limits assumed): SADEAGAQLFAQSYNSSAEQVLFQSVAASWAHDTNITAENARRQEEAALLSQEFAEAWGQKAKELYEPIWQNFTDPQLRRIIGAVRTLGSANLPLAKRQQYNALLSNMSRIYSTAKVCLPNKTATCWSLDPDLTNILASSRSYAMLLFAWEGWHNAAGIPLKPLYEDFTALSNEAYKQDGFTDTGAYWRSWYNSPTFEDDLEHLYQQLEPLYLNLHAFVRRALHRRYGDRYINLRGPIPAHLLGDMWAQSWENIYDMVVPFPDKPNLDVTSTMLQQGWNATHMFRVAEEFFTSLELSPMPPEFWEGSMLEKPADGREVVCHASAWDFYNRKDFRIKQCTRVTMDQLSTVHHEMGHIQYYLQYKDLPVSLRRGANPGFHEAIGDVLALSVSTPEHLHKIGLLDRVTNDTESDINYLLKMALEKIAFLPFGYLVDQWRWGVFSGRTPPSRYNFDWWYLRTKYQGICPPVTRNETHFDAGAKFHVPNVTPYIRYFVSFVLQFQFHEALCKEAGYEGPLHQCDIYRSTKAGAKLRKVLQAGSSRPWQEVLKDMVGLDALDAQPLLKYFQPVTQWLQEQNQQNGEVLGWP
Experimental: (§1) Serial dilutions of an appropriate range were prepared for each inhibitor in the aforementioned assay buffer. An appropriate concentration of enzyme was similarly prepared and incubated with an equal volume of inhibitor for 15 min at 22°C after which 20 μl volumes of the reactions were aliquoted to a 96-well plate. […] Control (zero inhibitor) reactions containing the appropriate concentration of methanol or DMSO (in the case of ketoACE-13 or omapatrilat, respectively) were included to correct for any possible vehicle-induced effects on the reaction rate.

nACE [2] = test: as above; format: biochemical; conditions: Ki cACE / Ki nACE (N-selectivity)
Experimental: as §1

[3] = biological target: S′-nACE (S260T, E262S, D354E, S357V, T358V and E431D) (Homo sapiens, UniProt P12821, D383E/E291S/E460D/S289T/S386V/T387V); test: Inhibitor binding kinetics, modified Abz-FRK(Dnp)P-OH assay, S′ mutant; format: biochemical; conditions: for Selectivity (Ki cACE/Ki nACE or mutant): Ki cACE / Ki S′-nACE; for decrease in binding affinity compared with nACE: S′-nACE relative to nACE; for Ki: S′-nACE, Morrison plot, 50 mM HEPES pH 6.8, 200 mM NaCl, 10 μM ZnCl2, mean ± SD
Chain of S′-nACE (S260T, E262S, D354E, S357V, T358V and E431D) (P12821 40-624 S289T/E291S/D383E/S386V/T387V/E460D): as the sequence (P12821 40-624 limits assumed) above, with S250T, E252S, D344E, S347V, T348V, E421D counted along it
Experimental: as §1

cACE = cACE (Homo sapiens, UniProt P12821); test: Inhibitor binding kinetics, modified Abz-FRK(Dnp)P-OH assay, wild-type C-domain; format: biochemical; conditions: for Ki: cACE, Morrison plot, 50 mM HEPES pH 6.8, 200 mM NaCl, 10 μM ZnCl2, mean ± SD
Chain of cACE (P12821 643-1222 limits assumed): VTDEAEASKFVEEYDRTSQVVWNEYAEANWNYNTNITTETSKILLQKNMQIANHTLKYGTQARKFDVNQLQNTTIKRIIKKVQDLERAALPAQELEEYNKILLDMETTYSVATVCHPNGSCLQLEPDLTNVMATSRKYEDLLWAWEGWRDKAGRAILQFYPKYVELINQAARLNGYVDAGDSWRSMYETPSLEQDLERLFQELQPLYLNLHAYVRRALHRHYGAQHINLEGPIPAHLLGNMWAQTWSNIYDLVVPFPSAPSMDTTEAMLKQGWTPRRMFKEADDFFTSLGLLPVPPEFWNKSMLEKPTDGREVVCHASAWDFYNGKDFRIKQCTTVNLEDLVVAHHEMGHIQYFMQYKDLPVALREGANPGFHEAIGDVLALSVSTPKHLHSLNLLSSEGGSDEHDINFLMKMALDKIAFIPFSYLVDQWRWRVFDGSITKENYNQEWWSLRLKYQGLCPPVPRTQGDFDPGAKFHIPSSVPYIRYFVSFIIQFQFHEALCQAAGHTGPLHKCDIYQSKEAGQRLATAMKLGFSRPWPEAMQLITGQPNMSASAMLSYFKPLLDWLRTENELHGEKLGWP
Experimental: as §1

[4] = biological target: S2-nACE (Y369F and R381E) (Homo sapiens, UniProt P12821, R410E/Y398F); test: Inhibitor binding kinetics, modified Abz-FRK(Dnp)P-OH assay, S2 mutant; format: biochemical; design: The truncated (single domain) wild-type N-domain (nACE), N-domain mutant constructs; made in house; host or cells: CHO-K1; conditions: for Selectivity (Ki cACE/Ki nACE or mutant): Ki cACE / Ki S2-nACE; for Ki: S2-nACE, Morrison plot, 50 mM HEPES pH 6.8, 200 mM NaCl, 10 μM ZnCl2, mean ± SD; for decrease in binding affinity compared with nACE: S2-nACE relative to nACE
Chain of S2-nACE (Y369F and R381E) (P12821 40-624 Y398F/R410E): as the sequence (P12821 40-624 limits assumed) above, with Y359F, R371E counted along it
Experimental: as §1

[5] = biological target: S2_S′-nACE (S260T, E262S, D354E, S357V, T358V, Y369F, R381E and E431D) (Homo sapiens, UniProt P12821, D383E/E291S/E460D/R410E/S289T/S386V/T387V/Y398F); test: Inhibitor binding kinetics, modified Abz-FRK(Dnp)P-OH assay, combined S2_S′ mutant; format: biochemical; design: The truncated (single domain) wild-type N-domain (nACE), N-domain mutant constructs; made in house; host or cells: CHO-K1; conditions: for Selectivity (Ki cACE/Ki nACE or mutant): Ki cACE / Ki S2_S′-nACE; for binding affinity lower than that of cACE: S2_S′-nACE relative to cACE; for Ki: S2_S′-nACE, Morrison plot, 50 mM HEPES pH 6.8, 200 mM NaCl, 10 μM ZnCl2, mean ± SD; for decrease in binding affinity compared with nACE: S2_S′-nACE relative to nACE
Chain of S2_S′-nACE (S260T, E262S, D354E, S357V, T358V, Y369F, R381E and E431D) (P12821 40-624 S289T/E291S/D383E/S386V/T387V/Y398F/R410E/E460D): as the sequence (P12821 40-624 limits assumed) above, with S250T, E252S, D344E, S347V, T348V, Y359F, R371E, E421D counted along it
Experimental: as §1

[6] = Integrity of omapatrilat at ambient temperature monitored by HPLC (dimer formation); format: physicochemical
Experimental: The fluorogenic substrate Abz-FRK(Dnp)P-OH was a kind gift from Prof A.K. Carmona, Universidade Federal de São Paulo. The peptide was dissolved in 100% DMSO and the concentration determined by measuring the absorbance at 365 nm and extinction coefficient of 17 300 M^−1 cm^−1. Subsequent dilutions from the 1 mM stock of were made in assay buffer (50 mM HEPES, pH 6.8, 10 μM ZnCl2, 200 mM NaCl). […] KetoACE-13 was dissolved in 100% methanol to a stock concentration of 50 mM, followed by dilution in deionized distilled water to 10 mM. Since the dimerization of omapatrilat has been previously described, fresh 10 mM stocks of inhibitor were prepared in DMSO directly prior to kinetic analysis. The integrity of omapatrilat at ambient temperature was monitored at 50 µM by HPLC (Agilent 1260 Infinity HPLC System with a Poroshell 120 EC-C 18 column) over the timeframe of each assay, as previously described. A 20 µl injection volume was used with a 0.5 ml/min flow rate with A: 1% ACN, 0.1% TFA; B: 95% ACN, 0.1% TFA; and 0–100% B over 10 min; 214 nm.
Figure 2 . Effect of mutation on N-selective inhibition, integrity of omapatrilat at ambient temperature as monitored by HPLC and SDS–PAGE gel illustrating the decreased molecular mass of the active site mutant N389-S2_S′-nACE. (A) Inhibitor binding affinities (Ki values) for wild-type cACE or nACE mutants are shown on a log scale relative to nACE with error bars representing mean ± SD of at least two independent experiments. (B) Omapatrilat (50 μM in assay buffer) was analyzed using a Poroshell 120 EC-C 18 column on the Agilent 1260 infinity HPLC system. Twenty microliters of the sample was injected onto the column immediately after preparation or following incubation at ambient temperature for 1, 2 or 3 h. Conditions: A: 1% ACN, 0.1% TFA; B: 95% ACN, 0.1% TFA; 0–100% B over 10 min; 0.5 ml/min, 214 nm. […] (C) SDS–PAGE of purified nACE proteins (1) fully glycosylated S2_S′-nACE, (2) minimally glycosylated N389-nACE and (3) minimally glycosylated N389-S2_S′-nACE.

[7] = biological target: S2_S′-nACE (N-domain mutant S260T, E262S, D354E, S357V, T358V, Y369F, R381E and E431D)
[8] = biological target: Wild-type N-domain of angiotensin-converting enzyme (nACE)
[9] = biological target: S′-nACE (N-domain mutant S260T, E262S, D354E, S357V, T358V and E431D)
[10] = biological target: S2-nACE (N-domain mutant Y369F and R381E)
[11] = biological target: Wild-type C-domain of angiotensin-converting enzyme (cACE)

Molecule	Ki (nACE [1]) [nM]	Selectivity (Ki cACE/Ki nACE or mutant) (nACE [2])	Selectivity (Ki cACE/Ki nACE or mutant) [3]	decrease in binding affinity compared with nACE [3] [fold]	Ki [3] [nM]	Selectivity (Ki cACE/Ki nACE or mutant) (cACE)	Ki (cACE) [nM]	Selectivity (Ki cACE/Ki nACE or mutant) [4]	Ki [4] [nM]	Selectivity (Ki cACE/Ki nACE or mutant) [5]	binding affinity lower than that of cACE [5] [fold]	Ki [5] [nM]	decrease in binding affinity compared with nACE [4] [fold]	decrease in binding affinity compared with nACE [5] [fold]	also measured
CC(C)(C)OC(=O)NC(CC(=O)O)C(=O)NC(Cc1ccccc1)C(=O)CCC(=O)N1CCCC1C(=O)O (stereo not drawn) [KetoACE13]	1000 ± 270	8	3	3	2990 ± 1000	1	8250 ± 430	0.5	17800	0.2	6	47800	–	–	–
C[C@H](N[C@@H](CCc1ccccc1)C(=O)O)C(=O)N1CCC[C@H]1C(=O)O [Enalaprilat, enalaprilat, reference compound]	–	–	–	2.5	–	–	–	–	–	–	19	–	2	4	greater affinity to cACE than nACE (cACE; cACE relative to nACE): 5 fold
CC(NC(C(=O)O)C1CCCN1C(=O)C(N)CC(=O)O)C(=O)N1CCCC1C(=O)O (stereo not drawn) [SG6]	0.093 ± 0.02	825	70	11	1.09 ± 0.1	1	76.8 ± 4.3	1.7	44 ± 2.8	1.1	–	72.9 ± 7.5	474	784	–
O=C(N[C@H]1CCS[C@H]2CCC[C@@H](C(=O)O)N2C1=O)[C@@H](S)Cc1ccccc1 [Omapatrilat, omapatrilat, reference compound]	0.37 ± 0.05	2	1	–	0.49 ± 0.04	1	0.7 ± 0.09	2	0.43 ± 0.13	2	–	0.29 ± 0.01	–	–	fraction of dimer detected ([6]; 50 μM in assay buffer (50 mM HEPES pH 6.8), immediately after solubilization): 2.56%; increase in fraction of dimer ([6]; 50 μM in assay buffer, after 1 h at ambient temperature): 0.86%; fraction of dimer detected ([6]; 50 μM in assay buffer, after 3 h of incubation at ambient temperature): 11%
[2Abz]FRK(Dnp)P-OH (N-terminus assumed; SMILES N=C(N)NCCC[C@H](NC(=O)[C@H](Cc1ccccc1)NC(=O)c1ccccc1N)C(=O)N[C@@H](CCCCNc1ccc([N+](=O)[O-])cc1[N+](=O)[O-])C(=O)N1CCC[C@H]1C(=O)O) [Abz-FRK(Dnp)P-OH]	–	–	–	–	–	–	–	–	–	–	–	–	–	–	Km of Abz-FRK(Dnp)P-OH hydrolysis (Michaelis-Menten model, initial velocities; 50 mM HEPES pH 6.8, 200 mM NaCl, 10 µM ZnCl2, ambient temperature) [7]: 12.4 μM; Km of Abz-FRK(Dnp)P-OH hydrolysis (Michaelis-Menten model, initial velocities; 50 mM HEPES pH 6.8, 200 mM NaCl, 10 µM ZnCl2, ambient temperature) [8]: 7.54 μM; Km of Abz-FRK(Dnp)P-OH hydrolysis (Michaelis-Menten model, initial velocities; 50 mM HEPES pH 6.8, 200 mM NaCl, 10 µM ZnCl2, ambient temperature) [9]: 4.51 μM; Km of Abz-FRK(Dnp)P-OH hydrolysis (Michaelis-Menten model, initial velocities; 50 mM HEPES pH 6.8, 200 mM NaCl, 10 µM ZnCl2, ambient temperature) [10]: 11.9 μM; Km of Abz-FRK(Dnp)P-OH hydrolysis (Michaelis-Menten model, initial velocities; 50 mM HEPES pH 6.8, 200 mM NaCl, 10 µM ZnCl2, ambient temperature) [11]: 6.3 μM
